Assay results reported in US11492374B2 (priority 2020, dated 2022).

Experiments:
[1] = target: recombinant human kappa opioid receptor (KOR) (Homo sapiens (Human), UniProt P41145); type: binding
[2] = target: recombinant human mu opioid receptor (MOR) (Homo sapiens (Human), UniProt P35372); assay: Opioid receptor radioligand binding assay, MOR ([3H]DAMGO); conditions: membranes of HEK293 cells expressing recombinant human MOR; 0.5 nM [3H]DAMGO

Which results are given for `CC(C)C[C@@H](NC(=O)[C@@H](Cc1ccccc1)NC(=O)[C@H](N)[C@H](C)c1ccccc1)C(=O)N[C@H](CCCCN)C(=O)N1CCC(N)(C(=O)O)CC1` [Compound 18]?
IC50 [1]: 0.000253 µM; δ/k [1]: >39603; μ/k [1]: 38855; IC50 [2]: 9.81 µM
